# According to PubChem BioAssay (NCI):
#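 Interpolation was linear, between the two tested concentrations surrounding the appropriate level; five concentrations were tested over 48 hours in 96-well plates. TGI denotes the concentration required for complete inhibition of growth.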
# Experiments:
# Experiment in all cases: growth of human tumour cells (NCI), 48 h
# MDA-MB-231 breast = test system: MDA-MB-231 breast
# SW-620 colon = test system: SW-620 colon
# HS 578T breast = test system: HS 578T breast
# ACHN renal = test system: ACHN renal
# RXF 393 renal = test system: RXF 393 renal
# UACC-257 melanoma = test system: UACC-257 melanoma
# NCI/ADR-RES ovarian = test system: NCI/ADR-RES ovarian
# MALME-3M melanoma = test system: MALME-3M melanoma
# DU-145 prostate = test system: DU-145 prostate
# UACC-62 melanoma = test system: UACC-62 melanoma
# HL-60(TB) leukemia = test system: HL-60(TB) leukemia
# KM12 colon = test system: KM12 colon
# OVCAR-5 ovarian = test system: OVCAR-5 ovarian
# NCI-H522 lung = test system: NCI-H522 lung
# MDA-N = test system: MDA-N
# RPMI-8226 leukemia = test system: RPMI-8226 leukemia
# SK-OV-3 ovarian = test system: SK-OV-3 ovarian
# SNB-19 CNS = test system: SNB-19 CNS
# T-47D breast = test system: T-47D breast
# U251 CNS = test system: U251 CNS
# HOP-92 NSCLC = test system: HOP-92 NSCLC
# MCF7 breast = test system: MCF7 breast
# CCRF-CEM leukemia = test system: CCRF-CEM leukemia
# BT-549 breast = test system: BT-549 breast
# SK-MEL-2 melanoma = test system: SK-MEL-2 melanoma
# UO-31 renal = test system: UO-31 renal
# 786-0 renal = test system: 786-0 renal
# HCT-116 colon = test system: HCT-116 colon
# NCI-H23 lung = test system: NCI-H23 lung
# MOLT-4 leukemia = test system: MOLT-4 leukemia
# NCI-H226 lung = test system: NCI-H226 lung
# PC-3 prostate = test system: PC-3 prostate
# SN12C renal = test system: SN12C renal
# TK-10 renal = test system: TK-10 renal
# SF-539 CNS = test system: SF-539 CNS
# SR leukemia = test system: SR leukemia
# HT29 colon = test system: HT29 colon
# NCI-H460 lung = test system: NCI-H460 lung
# A549 NSCLC = test system: A549 NSCLC
# OVCAR-4 ovarian = test system: OVCAR-4 ovarian
# CAKI-1 renal = test system: CAKI-1 renal
# OVCAR-8 ovarian = test system: OVCAR-8 ovarian
# SF-268 CNS = test system: SF-268 CNS
# MDA-MB-435 = test system: MDA-MB-435
# M14 melanoma = test system: M14 melanoma
# COLO 205 colon = test system: COLO 205 colon
# EKVX NSCLC = test system: EKVX NSCLC
# IGROV1 ovarian = test system: IGROV1 ovarian
# HCT-15 colon = test system: HCT-15 colon
# SNB-75 CNS = test system: SNB-75 CNS
# K-562 leukemia = test system: K-562 leukemia
# SF-295 CNS = test system: SF-295 CNS
# SK-MEL-5 melanoma = test system: SK-MEL-5 melanoma
# HCC-2998 colon = test system: HCC-2998 colon
# OVCAR-3 ovarian = test system: OVCAR-3 ovarian
# A498 renal = test system: A498 renal
# LOX IMVI melanoma = test system: LOX IMVI melanoma
# SK-MEL-28 melanoma = test system: SK-MEL-28 melanoma
# HOP-62 NSCLC = test system: HOP-62 NSCLC
compound,measurement,setting,value
CC(NC(=O)c1ccccc1)NC(=O)C(C)C(=O)Nc1ccccc1 (stereo not given),TGI,MDA-MB-231 breast,> 100 µM
same,TGI,SW-620 colon,> 100 µM
same,TGI,HS 578T breast,> 100 µM
same,TGI,ACHN renal,> 100 µM
same,TGI,RXF 393 renal,> 100 µM
same,TGI,UACC-257 melanoma,> 100 µM
same,TGI,NCI/ADR-RES ovarian,> 100 µM
same,TGI,MALME-3M melanoma,> 100 µM
same,TGI,DU-145 prostate,> 100 µM
same,TGI,UACC-62 melanoma,> 100 µM
same,TGI,HL-60(TB) leukemia,> 100 µM
same,TGI,KM12 colon,> 100 µM
same,TGI,OVCAR-5 ovarian,> 100 µM
same,TGI,NCI-H522 lung,> 100 µM
same,TGI,MDA-N,> 100 µM
same,TGI,RPMI-8226 leukemia,> 100 µM
same,TGI,SK-OV-3 ovarian,> 100 µM
same,TGI,SNB-19 CNS,71.7 µM
same,TGI,T-47D breast,> 100 µM
same,TGI,U251 CNS,> 100 µM
same,TGI,HOP-92 NSCLC,> 100 µM
same,TGI,MCF7 breast,> 100 µM
same,TGI,CCRF-CEM leukemia,> 100 µM
same,TGI,BT-549 breast,> 100 µM
same,TGI,SK-MEL-2 melanoma,> 100 µM
same,TGI,UO-31 renal,> 100 µM
same,TGI,786-0 renal,> 100 µM
same,TGI,HCT-116 colon,> 100 µM
same,TGI,NCI-H23 lung,> 100 µM
same,TGI,MOLT-4 leukemia,> 100 µM
same,TGI,NCI-H226 lung,> 100 µM
same,TGI,PC-3 prostate,> 100 µM
same,TGI,SN12C renal,> 100 µM
same,TGI,TK-10 renal,> 100 µM
same,TGI,SF-539 CNS,> 100 µM
same,TGI,SR leukemia,> 100 µM
same,TGI,HT29 colon,> 100 µM
same,TGI,NCI-H460 lung,> 100 µM
same,TGI,A549 NSCLC,> 100 µM
same,TGI,OVCAR-4 ovarian,> 100 µM
same,TGI,CAKI-1 renal,> 100 µM
same,TGI,OVCAR-8 ovarian,> 100 µM
same,TGI,SF-268 CNS,> 100 µM
same,TGI,MDA-MB-435,> 100 µM
same,TGI,M14 melanoma,> 100 µM
same,TGI,COLO 205 colon,> 100 µM
same,TGI,EKVX NSCLC,> 100 µM
same,TGI,IGROV1 ovarian,> 100 µM
same,TGI,HCT-15 colon,> 100 µM
same,TGI,SNB-75 CNS,> 100 µM
same,TGI,K-562 leukemia,> 100 µM
same,TGI,SF-295 CNS,> 100 µM
same,TGI,SK-MEL-5 melanoma,> 100 µM
Clc1cc(Cl)cc(C2ON=C(c3ccccc3)N2C23CC4CC(CC(C4)C2)C3)c1 (stereo not given),TGI,MDA-MB-231 breast,> 10 µM
same,TGI,SW-620 colon,> 10 µM
same,TGI,HS 578T breast,> 10 µM
same,TGI,ACHN renal,> 10 µM
same,TGI,RXF 393 renal,> 10 µM
same,TGI,UACC-257 melanoma,> 10 µM
same,TGI,NCI/ADR-RES ovarian,> 10 µM
same,TGI,MALME-3M melanoma,> 10 µM
same,TGI,DU-145 prostate,> 10 µM
same,TGI,UACC-62 melanoma,> 10 µM
same,TGI,HCC-2998 colon,> 10 µM
same,TGI,KM12 colon,> 10 µM
same,TGI,OVCAR-5 ovarian,> 10 µM
same,TGI,NCI-H522 lung,> 10 µM
same,TGI,MDA-N,> 10 µM
same,TGI,OVCAR-3 ovarian,> 10 µM
same,TGI,RPMI-8226 leukemia,> 10 µM
same,TGI,SK-OV-3 ovarian,> 10 µM
same,TGI,SNB-19 CNS,> 10 µM
same,TGI,T-47D breast,> 10 µM
same,TGI,U251 CNS,> 10 µM
same,TGI,HOP-92 NSCLC,> 10 µM
same,TGI,MCF7 breast,> 10 µM
same,TGI,CCRF-CEM leukemia,> 10 µM
same,TGI,BT-549 breast,> 10 µM
same,TGI,SK-MEL-2 melanoma,> 10 µM
same,TGI,UO-31 renal,> 10 µM
same,TGI,786-0 renal,> 10 µM
same,TGI,HCT-116 colon,> 10 µM
same,TGI,A498 renal,> 10 µM
same,TGI,NCI-H23 lung,> 10 µM
same,TGI,MOLT-4 leukemia,> 10 µM
same,TGI,NCI-H226 lung,> 10 µM
same,TGI,PC-3 prostate,> 10 µM
same,TGI,SN12C renal,> 10 µM
same,TGI,TK-10 renal,> 10 µM
same,TGI,SF-539 CNS,> 10 µM
same,TGI,HT29 colon,> 10 µM
same,TGI,NCI-H460 lung,> 10 µM
same,TGI,A549 NSCLC,> 10 µM
same,TGI,OVCAR-4 ovarian,> 10 µM
same,TGI,CAKI-1 renal,> 10 µM
same,TGI,OVCAR-8 ovarian,> 10 µM
same,TGI,SF-268 CNS,> 10 µM
same,TGI,MDA-MB-435,> 10 µM
same,TGI,M14 melanoma,> 10 µM
same,TGI,COLO 205 colon,> 10 µM
same,TGI,EKVX NSCLC,> 10 µM
same,TGI,IGROV1 ovarian,> 10 µM
same,TGI,LOX IMVI melanoma,> 10 µM
same,TGI,HCT-15 colon,> 10 µM
same,TGI,SNB-75 CNS,> 10 µM
same,TGI,K-562 leukemia,> 10 µM
same,TGI,SK-MEL-28 melanoma,> 10 µM
same,TGI,HOP-62 NSCLC,> 10 µM
same,TGI,SF-295 CNS,> 10 µM
same,TGI,SK-MEL-5 melanoma,> 10 µM
